Experimental findings from patent US20020147187A1, “1,2-diphenyl-1-naphthyl ethene derivatives, analogs and use thereof” (priority 2001, published 2002) are described below.

In assay [1] the test system is MCF-7 cells. The experiment in a line: MCF-7 cell proliferation assay (estradiol stimulated versus unstimulated, MTT). The class given is cell-based, human. The settings on record: estradiol stimulated versus unstimulated MCF-7 cells, FIG. 1. The method, then:
Those skilled in the art will appreciate that several acceptable estrogen receptor-binding assays are known and available for initial screening of the compounds of the present invention. The initial screen chosen for detecting anti-estrogenic/estrogenic activity was a human cell line assay, namely the MCF-7 cell proliferation assay. MCF-7 cells are estrogen-receptor positive (ER+) cancer cells that respond to estradiol stimulation. Anti-estrogenic activity is measured in terms of a test article's ability to inhibit estradiol stimulated proliferation, implying an antagonistic action on the estrogen receptor and estrogenic activity can be inferred from increased proliferation. The following testing procedure was used.
MCF-7 cells were maintained in a RPMI medium, free of phenol red, and supplemented with 5% charcoal-stripped foetal calf serum, hydrocortisone, bovine insulin, penicillin and streptomycin until they reached 70% confluence. […] Cell survival was evaluated after 3-6 days, by replacing the culture media with 150 μl of fresh medium containing 10 mM 4-(2-hydroxyethyl)-1-piperazineethamsulfonic acid buffer (pH 7.4) followed by the addition of 50 μl of 2.5 mg/ml of 3-(4,5-dimethylthiazo-2-yl)-2,5-diphenyltetrazolium bromide (MTT). […] Plates were shaken for 15 minutes and the absorbance was determined at 570 nm with a microplate reader (BIORAD, model 450). […]

Assay [2] addresses T1, human recombinant estrogen receptor alpha (Homo sapiens, UniProt P03372).
T1 sequence (P03372 1-595): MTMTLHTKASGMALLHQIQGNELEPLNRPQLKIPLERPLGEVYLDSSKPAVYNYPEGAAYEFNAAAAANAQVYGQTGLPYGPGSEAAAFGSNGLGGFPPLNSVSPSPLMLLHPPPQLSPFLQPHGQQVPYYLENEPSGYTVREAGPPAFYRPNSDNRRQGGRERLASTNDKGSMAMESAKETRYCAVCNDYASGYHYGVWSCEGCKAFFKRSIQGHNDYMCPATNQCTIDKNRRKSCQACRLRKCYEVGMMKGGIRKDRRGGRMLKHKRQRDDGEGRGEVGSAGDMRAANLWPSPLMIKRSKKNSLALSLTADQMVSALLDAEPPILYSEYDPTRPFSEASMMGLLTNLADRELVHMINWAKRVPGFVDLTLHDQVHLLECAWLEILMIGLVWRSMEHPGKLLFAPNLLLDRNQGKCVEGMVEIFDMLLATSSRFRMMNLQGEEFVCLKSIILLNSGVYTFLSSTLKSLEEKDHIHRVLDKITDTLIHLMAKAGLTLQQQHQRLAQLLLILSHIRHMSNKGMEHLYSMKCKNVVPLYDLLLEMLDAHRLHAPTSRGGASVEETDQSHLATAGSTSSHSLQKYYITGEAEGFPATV
The assay is described as follows: Estrogen receptor alpha binding assay ([3H] Estradiol displacement). The settings on record: IC50 Value, Estrogen Receptor Subtype Alpha, displacement of 0.5 nM [3H] Estradiol, 4.5 ng receptor protein, 2 hours at 25° C.
Experimental: The stable expression of these individual receptor subtypes in cells provides a rapid and accurate means of quantifying the direct interaction of a test article with the estrogen binding sites. Briefly, this assay is conducted in 96 well plates where a series of concentrations of the test article are used to displace tritiated estradiol from either estrogen receptor alpha or estrogen receptor beta bearing cell membranes, under equilibrium conditions. […] This measurement is the primary test for mediation of the estrogen receptor and can also be used to measure the relative selectivity of the test article for either the alpha or beta subtype.
The alpha subtype assay measures the binding of [^3H] Estradiol to the human recombinant estrogen receptor. […] Membranes are filtered and washed 3 times, and the filters are counted to determine [^3H] Estradiol specifically bound. […] The measurement of the displaced tritiated estradiol allows the determination of an IC50 value, a direct measure of the test articles' interaction with the estrogen receptor alpha.

The target of assay [3] is human recombinant estrogen receptor beta (Homo sapiens, UniProt Q92731). The assay is described as follows: Estrogen receptor beta binding assay ([3H] Estradiol displacement). The settings on record: displacement of 0.5 nM [3H] Estradiol, 7.5 ng receptor protein, 2 hours at 25° C.; read-out: IC50 Value, Estrogen Receptor Subtype Beta.

Molecules are shown by their SMILES.

human recombinant estrogen receptor beta, sequence (Q92731 whole entry): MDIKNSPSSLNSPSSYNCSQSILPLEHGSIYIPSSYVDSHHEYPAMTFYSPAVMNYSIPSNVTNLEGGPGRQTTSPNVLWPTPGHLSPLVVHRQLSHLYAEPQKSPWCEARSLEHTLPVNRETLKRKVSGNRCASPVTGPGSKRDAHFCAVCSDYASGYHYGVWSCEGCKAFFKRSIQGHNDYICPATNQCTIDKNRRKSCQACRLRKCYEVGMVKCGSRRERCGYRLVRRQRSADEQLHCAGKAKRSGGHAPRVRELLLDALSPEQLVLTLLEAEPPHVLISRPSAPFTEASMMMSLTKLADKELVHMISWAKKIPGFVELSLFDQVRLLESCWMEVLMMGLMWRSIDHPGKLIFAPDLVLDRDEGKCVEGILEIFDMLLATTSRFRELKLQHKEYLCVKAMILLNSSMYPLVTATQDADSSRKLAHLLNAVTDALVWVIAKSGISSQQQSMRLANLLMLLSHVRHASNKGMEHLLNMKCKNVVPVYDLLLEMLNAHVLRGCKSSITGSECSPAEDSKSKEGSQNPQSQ

One may read the IC50 as the concentration that gives 50% inhibition. `C/C(=C(/c1ccc(O)cc1)c1cccc2cc(O)ccc12)c1ccc(OCCN2CCCC2)cc1` [Formula II, (E)-5-[1-(4-hydroxyphenyl)-2-[4-(2-pyrrolidin-1-yl-ethoxy)-phenyl]-propenyl]-naphthalen-2-ol]: the “effect on estradiol stimulated proliferation of MCF-7 cells (shift in dose-response curve)” value in assay [1] was “antagonizing the effect of estradiol”. Moreover, the IC50 in assay [2] came out at 5.54 nM; in assay [3] it was 75 nM.
